Experiments:
[1] = system: blackgrass; test: Test C preemergence; type: in vivo, Alopecurus myosuroides
In short: (§1)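 Visual injury score, 0–100 (100 = complete control), taken 10 days after treatment relative to untreated controls. Pre: directed spray onto soil over sown seeds. Post: foliar spray at one- to two-leaf stage, 2–10 cm. Solvent/surfactant formulation; loam–sand soil; greenhouse.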

[2] = system: soybean; test: Test C postemergence; type: in vivo, Glycine max; settings: Postemergence, 125 g ai/ha; 0 to 100 scale (0 no effect, 100 complete control), 10 days
In short: as §1

[3] = system: ryegrass, Italian; test: Test C preemergence; type: in vivo, Lolium multiflorum
In short: as §1

[4] = system: ryegrass, Italian; test: Test C postemergence; type: in vivo, Lolium multiflorum; settings: Postemergence, 125 g ai/ha; 0 to 100 scale (0 no effect, 100 complete control), 10 days
In short: as §1

[5] = system: ragweed; test: Test C postemergence; type: in vivo, Ambrosia artemisiifolia; settings: Postemergence, 125 g ai/ha; 0 to 100 scale (0 no effect, 100 complete control), 10 days
In short: as §1

[6] = system: sedge, umbrella; test: Test D flooded paddy test; type: in vivo, Cyperus difformis; settings: 250 g ai/ha, applied to paddy water, visual rating after 13 to 14 days, scale 0 to 100 (0 no effect, 100 complete control)
In short: (§2)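 Plants at the 2-leaf stage were grown in pots flooded to 3 cm, and compound was applied directly into the paddy water, with depth kept throughout. After 13–14 days in a greenhouse, injury was rated visually against untreated controls on a 0–100 scale (100 = complete control); a dash means not tested.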

[7] = system: ducksalad; test: Test D flooded paddy test; type: in vivo, Heteranthera limosa; settings: 250 g ai/ha, applied to paddy water, visual rating after 13 to 14 days, scale 0 to 100 (0 no effect, 100 complete control)
In short: as §2

[8] = system: corn; test: Test C postemergence; type: in vivo, Zea mays; settings: 10 days, 0 to 100 scale (0 no effect, 100 complete control)
In short: as §1

[9] = system: barnyardgrass; test: Test C postemergence; type: in vivo, Echinochloa crusgalli; settings: 10 days, 0 to 100 scale (0 no effect, 100 complete control)
In short: as §1

[10] = system: blackgrass; test: Test C postemergence; type: in vivo, Alopecurus myosuroides; settings: 10 days, 0 to 100 scale (0 no effect, 100 complete control)
In short: as §1

[11] = system: green foxtail; test: Test C postemergence; type: in vivo, Setaria viridis; settings: 10 days, 0 to 100 scale (0 no effect, 100 complete control)
In short: as §1

[12] = system: corn; test: Test C preemergence; type: in vivo, Zea mays
In short: as §1

[13] = system: wheat; test: Test C postemergence; type: in vivo, Triticum aestivum; settings: Postemergence, 125 g ai/ha; 0 to 100 scale (0 no effect, 100 complete control), 10 days
In short: as §1

[14] = system: kochia; test: Test C postemergence; type: in vivo, Bassia scoparia; settings: 10 days, 0 to 100 scale (0 no effect, 100 complete control)
In short: as §1

[15] = system: oat, wild; test: Test C postemergence; type: in vivo, Avena fatua; settings: 10 days, 0 to 100 scale (0 no effect, 100 complete control)
In short: as §1

[16] = system: soybean; test: Test C preemergence; type: in vivo, Glycine max
In short: as §1

[17] = system: ragweed; test: Test C preemergence; type: in vivo, Ambrosia artemisiifolia
In short: as §1

[18] = system: wheat; test: Test C preemergence; type: in vivo, Triticum aestivum
In short: as §1

[19] = system: oat, wild; test: Test C preemergence; type: in vivo, Avena fatua
In short: as §1

[20] = system: green foxtail; test: Test C preemergence; type: in vivo, Setaria viridis
In short: as §1

[21] = system: barnyardgrass; test: Test C preemergence; type: in vivo, Echinochloa crusgalli
In short: as §1

[22] = system: kochia; test: Test C preemergence; type: in vivo, Bassia scoparia
In short: as §1

[23] = system: horseweed; test: Test C postemergence; type: in vivo, Erigeron canadensis; settings: 10 days, 0 to 100 scale (0 no effect, 100 complete control)
In short: as §1

[24] = system: rice; test: Test D flooded paddy test; type: in vivo, Oryza sativa; settings: 250 g ai/ha, applied to paddy water, visual rating after 13 to 14 days, scale 0 to 100 (0 no effect, 100 complete control)
In short: as §2

[25] = system: pigweed, palmer; test: Test C preemergence; type: in vivo, Amaranthus palmeri
In short: as §1

[26] = system: pigweed, palmer; test: Test C postemergence; type: in vivo, Amaranthus palmeri; settings: 10 days, 0 to 100 scale (0 no effect, 100 complete control)
In short: as §1

[27] = system: barnyardgrass; test: Test D flooded paddy test; type: in vivo, Echinochloa crus-galli; settings: 250 g ai/ha, applied to paddy water, visual rating after 13 to 14 days, scale 0 to 100 (0 no effect, 100 complete control)
In short: as §2

[28] = 500 g ai/ha, preemergence, 0 to 100 scale (0 no effect, 100 complete control)
[29] = Preemergence, 125 g ai/ha, 0 to 100 scale, 0 no effect, 100 complete control

Cc1ccc(-n2cnc(C(C)(C)C#N)n2)cc1C(=O)N1C[C@H](C)Oc2c(Cl)cccc21 [Compound 397]
Blackgrass plant response rating [1, 28]: 90
Plant response rating, Blackgrass [1, 29]: 70
Plant response rating, Soybean [2]: 50
Ryegrass, Italian plant response rating [3, 28]: 90
Plant response rating, Ryegrass, Italian [3, 29]: 80
Plant response rating, Ryegrass, Italian [4]: 50
Plant response rating, Ragweed [5]: 100
Plant response rating, Sedge, Umbrella (Flood) [6]: 45
Plant response rating, Ducksalad (Flood) [7]: 10
Plant response rating, Corn ([8]; 500 g ai/ha, postemergence): 70
Plant response rating, Corn ([8]; Postemergence, 125 g ai/ha): 70
Plant response rating, Barnyardgrass ([9]; 500 g ai/ha, postemergence): 60
Plant response rating, Barnyardgrass ([9]; Postemergence, 125 g ai/ha): 40
Plant response rating, Blackgrass ([10]; 500 g ai/ha, postemergence): 90
Plant response rating, Blackgrass ([10]; Postemergence, 125 g ai/ha): 80
Plant response rating, Foxtail, Green ([11]; 500 g ai/ha, postemergence): 90
Plant response rating, Foxtail, Green ([11]; Postemergence, 125 g ai/ha): 90
Corn plant response rating [12, 28]: 20
Plant response rating, Corn [12, 29]: 10
Plant response rating, Wheat [13]: 20
Plant response rating, Kochia ([14]; 500 g ai/ha, postemergence): 100
Plant response rating, Kochia ([14]; Postemergence, 125 g ai/ha): 90
Plant response rating, Oat, Wild ([15]; 500 g ai/ha, postemergence): 70
Plant response rating, Oat, Wild ([15]; Postemergence, 125 g ai/ha): 20
Soybean plant response rating [16, 28]: 100
Plant response rating, Soybean [16, 29]: 70
Ragweed plant response rating [17, 28]: 80
Plant response rating, Ragweed [17, 29]: 50
Wheat plant response rating [18, 28]: 30
Plant response rating, Wheat [18, 29]: 10
Oat, Wild plant response rating [19, 28]: 90
Plant response rating, Oat, Wild [19, 29]: 60
Foxtail, Green plant response rating [20, 28]: 100
Plant response rating, Foxtail, Green [20, 29]: 100
Barnyardgrass plant response rating [21, 28]: 100
Plant response rating, Barnyardgrass [21, 29]: 90
Kochia plant response rating [22, 28]: 100
Plant response rating, Kochia [22, 29]: 90
Plant response rating, Horseweed ([23]; 500 g ai/ha, postemergence): 80
Plant response rating, Horseweed ([23]; Postemergence, 125 g ai/ha): 40
Plant response rating, Rice (Flood) [24]: 15
Pigweed, Palmer plant response rating [25, 28]: 100
Plant response rating, Pigweed, Palmer [25, 29]: 100
Plant response rating, Pigweed, Palmer ([26]; 500 g ai/ha, postemergence): 100
Plant response rating, Pigweed, Palmer ([26]; Postemergence, 125 g ai/ha): 100
Plant response rating, Barnyardgrass (Flood) [27]: 50
